From patent US8952192B2, “Phosphorylated and branched dihydroxy-pentane-dione (DPD) analogs as quorum sensing inhibitors in bacteria” (University of Maryland, College Park, priority 2011, dated 2015)

Experiments:
[1] = tested on: lsr expression in E. coli (lsr-lacZ reporter strains); assay: QS response (lsr expression): AI-2 dependent β-galactosidase production, Miller assay; type: cell-based, Escherichia coli; conditions: E. coli ZK126 pLW11 LW8 (luxS+, lsrR−), 20 μM analog
[2] = tested on: P. aeruginosa; assay: DPD analogs and representative bacterial species affected (Table 1); type: cell-based; parameters: key: x: DPD Analogs and representative bacterial species affected
[3] = tested on: pre-formed P. aeruginosa biofilms (PAO1); assay: Effects on pre-formed P. aeruginosa biofilms (microfluidic flow cell, COMSTAT, optical density); type: cell-based
Method: (§1) The E. coli biofilms were formed using the strain K-12 MG1655 ATCC(47076). P. aeruginosa biofilms were formed using wild type strain PAO1. For both strains, overnight cultures were diluted to an OD600 of 0.25, introduced into the microfluidic channel, and incubated with no flow at 37° C. for 2 h. LB (Luria Bertani) growth medium was then continuously flowed into the device at a rate of 10 μL/hr. As needed, this medium was supplemented with various concentrations of analog or antibiotic at specified times. In studies of biofilm inhibition, after 2 hours of cell incubation, the analog diluted in LB medium is flown into the microfluidic channel for 48 hours at 10 μL/hr. In studies of effects on pre-formed biofilms, LB is introduced over the cells at 10 μL/hr for a period of 36 to 48 hours to yield stable biofilms. Then, the analog or analog-antibiotic combination was introduced for an additional 36 to 48 hours.
(§2) Biofilms were stained in situ for microscopy. They were first treated with a Live/Dead bacterial labeling kit (Invitrogen #L7012) in which two labeling components were mixed in a 1:1 ratio to a final volume of 10 μL. The dye was introduced into the channel at 10 μL/hr, the same flow rate as during biofilm growth. This treatment was then followed by 10 μL/hr of a 100 μg/mL calcofluor (Fluorescence Brightener 28, Sigma #F3543) solution for labeling polysaccharides contained in the biofilm matrix. The dyes are fixed by flowing in 3% paraformaldehyde at the same flow rate.
(§3) Labeled samples are imaged using a confocal microscope (Zeiss LSM710). For unpatterned coverslips, Z-stacks were obtained at 7 points in each microfluidic channel, each stack was comprised of 150 slices. For patterned coverslips used while measuring the optical density of the biofilms, two stacks were obtained in each channel (i.e. one at each pinhole). The image stacks were analyzed using COMSTAT, which provides morphological characteristics. Average biofilm thickness and biomass were averaged over the image stacks obtained at each of these 7 data points in the microfluidic channel. Additionally, surface reconstructions of the biofilms were created using Imaris (Bitplane) to aid in visualization of the resulting structures.
(§4) The data corresponding to the change in optical density of the biofilms were obtained from the photodiodes using the standard methodologies. Data for each channel (the average of the response of the two photodiodes) was normalized with respect to the optical density at 48 hours; this method reflects that as of 48 hours, the biofilms have been grown under identical conditions although their optical density values may not be identical. Additionally, since the optical density data itself fluctuates as the biofilm grows, the data for each curve was fitted using a Churchill model (Churchill et al, 1972), represented by log N=[f1^−1+f2^−1]^−1 (1)

[4] = tested on: V. harveyi; assay: DPD analogs and representative bacterial species affected (Table 1); type: cell-based; parameters: key: x: DPD Analogs and representative bacterial species affected
[5] = tested on: E. coli; assay: as above; type: cell-based; parameters: key: x: DPD Analogs and representative bacterial species affected
[6] = tested on: V. harveyi BB170; assay: QS response (bioluminescence), trispecies synthetic ecosystem; type: cell-based; conditions: 40 μM, LM media
Method: The effect of isobutyl-DPD or isopropyl-DPD on QS associated bioluminescence production by V. harveyi was recorded by measuring the light production from reporter strain, V. harveyi BB170. The analogs were added at concentrations of (20 μM or 40 μM) to V. harveyi BB170 which was assayed as previously described.
(§5) The S. typhimurium MET708, V. harveyi BB170 and E. coli W3110 pCT6 were each cultured separately overnight in LM medium supplemented with the appropriate antibiotic. V. harveyi BB170, S. typhimurium MET708 and E. coli MDAI-2 were diluted (1:4:8), respectively, into a single 1 ml volume of fresh LM medium without antibiotics. The co-culture was supplemented with either 20 μM or 40 μM analog initially and again after 3 and 5 hours of growth. The V. harveyi luminescence response was measured after 2.5 hours. The S. typhimurium lacZ (β-galactosidase) activity was measured after 4 hours. The E. coli response was determined after 8 hours, by fixing the cells with 1:1 cold 4% paraformaldehyde and using flow cytometric analysis. Samples were analyzed by flow cytometery (FACS Canto II, BD 394 Biosciences), with 20,000 gated events analyzed per sample.

[7] = tested on: S. typhimurium MET708; assay: Trispecies synthetic ecosystem (S. typhimurium, V. harveyi, E. coli): β-galactosidase activity; type: cell-based; conditions: trispecies co-culture, lacZ activity after 4 hours
Description: (§6) To investigate the effect of the DPD analogs in a mixed bacterial environment, a synthetic ecosystem composed of three different bacterial populations was assembled. Specifically, S. typhimurium MET708, V. harveyi BB170 and E. coli W3110 (pCT6), each luxS^+ (Table 2), and each producing their native AI-2 were co-cultured in the same tubes. By design, each species was selected so that a different reporter probe would indicate the specific bacterium's QS response: S. typhimurium (MET708) expresses β-galactosidase; V. harveyi (BB170) elicits bioluminescience; and E. coli (W331) are engineered to synthesize GFP. In this way, their responses can be differentiated and quantified in response to AI-2.
as §5, with “V. harveyi BB170, S. typhimurium MET708 and E. coli MDAI-2 were diluted (1:4:8), respectively, into a single 1 ml volume of fresh LM medium without antibiotics. The co-culture was supplemented with either 20 μM or 40 μM analog initially and again after 3 and 5 hours of growth.” left out

[8] = tested on: E. coli biofilms (K-12 MG1655); assay: Biofilm maturation in the presence of AI-2 analog (microfluidic flow cell, confocal microscopy, COMSTAT); type: cell-based
Method: as §1, §2, §3

[9] = tested on: E. coli W3110 pCT6; assay: Trispecies synthetic ecosystem: AI-2 stimulated GFP expression, flow cytometry; type: cell-based; conditions: trispecies co-culture, flow cytometry after 8 hours; 60.7% without analog
Description: as §6
as §5, with “V. harveyi BB170, S. typhimurium MET708 and E. coli MDAI-2 were diluted (1:4:8), respectively, into a single 1 ml volume of fresh LM medium without antibiotics. The co-culture was supplemented with either 20 μM or 40 μM analog initially and again after 3 and 5 hours of growth.” left out

[10] = tested on: pre-formed E. coli biofilms (K-12 MG1655); assay: Effects on pre-formed E. coli biofilms (microfluidic flow cell, COMSTAT, optical density); type: cell-based
Method: as §1, §2, §3, §4

[11] = tested on: S. typhimurium; assay: DPD analogs and representative bacterial species affected (Table 1); type: cell-based; parameters: key: x: DPD Analogs and representative bacterial species affected
[12] = 100 μM isobutyl-DPD combined with gentamicin 5 μg/ml

## O=C(C(=O)C(O)CO)c1ccccc1 (stereo not shown) [Phenyl-DPD, Phenyl DPD]
[1]
  difference in lsr expression versus control in lsrR null mutant: exception
[2]
  bacterial species affected: P. aeruginosa: x
[3]; 100 uM phenyl DPD alone
  biofilm reduction: about 40%
[3]; gentamicin and 100 uM phenyl DPD combined
  biofilm reduction: ~100%
[3]; phenyl-DPD 100 μM combined with gentamicin 5 μg/ml, untreated 15 μm^3/μm^2
  biofilm biomass: < 2 μm^3/μm^2
[3]; phenyl-DPD 100 μM combined with gentamicin 5 μg/ml, untreated 26 μm
  biofilm thickness: 2 μm
[3]; phenyl-DPD combined with gentamicin, continuous optical density measurement
  course of biofilm optical density after 48 h, in words: reversed biofilm growth

## CC(C)CC(=O)C(=O)[C@@H](O)CO [Isobutyl-DPD, isobutyl-DPD]
[4]
  bacterial species affected: V. harveyi: x
[5]
  bacterial species affected: E. coli: x
[6]
  decrease of bioluminescence in V. harveyi: 33%
[7]
  decrease of S. typhimurium β-galactosidase activity: 4 fold
[8]; 40 μM, 48 h, LB only 14 μm^3/μm^2
  average biofilm biomass: 3.5 μm^3/μm^2
[8]; 40 μM, 48 h, LB only 22 μm
  average biofilm thickness: 7 μm
[8]; 40 μM, 48 h continuous exposure in LB
  inhibition of biofilm growth: ~70%
[8]; 100 μM versus 40 μM
  effect on biofilm thickness of increasing concentration, in words: no further inhibitory effect
[9]
  QS positive (green, GFP) cells of the E. coli population after analog addition: 0.7%
[10]; 40 μM isobutyl-DPD combined with gentamicin 5 μg/ml
  average biofilm thickness: 6 μm
[10]; [12]
  average biofilm thickness: 2 μm
  effect on biofilm biomass, in words: nearly complete removal of biomass
  reduction in biofilm thickness: more than 80%
[10]; isobutyl-DPD combined with gentamicin, continuous optical density measurement
  course of biofilm optical density after 48 h, in words: reversed biofilm growth
[11]
  bacterial species affected: S. typhimurium: x
